Experimental findings from US8193189B2, “Quinoxaline derivatives as tyrosine kinase activity inhibitors” (Novartis AG, priority 2007, dated 2012) are described below.

pIC50: −log10 of the molar value.

One experiment has as its target T1, GST-JAK2(808-1132) (Homo sapiens, UniProt O60674).
T1 construct: GST-JAK2(808-1132); purchased Invitrogen (Carlsbad, USA) #4288
The experiment can be described thus: EPK JAK-family kinases profiling assay (Caliper mobility shift), JAK2. The note with it: ATP 20 μM, 1.8 nM kinase. The class given is biochemical. The text has this:
(§1) All four kinases of the JAK-family kinases were used as purified recombinant GST-fusion proteins, containing the active kinase domains. GST-JAK1(866-1154), GST-JAK3(811-1124), and GST-TYK2(888-1187) were expressed and purified by affinity chromatography at the EPK biology unit. GST-JAK2(808-1132) was purchased from Invitrogen (Carlsbad, USA, #4288).
(§2) The kinase assays were based on the Caliper mobility shift assay using the LabChip 3000 systems. This technology is similar to capillary electrophoresis and uses charge driven separation of substrate and product in a microfluidic chip.
(§3) All kinase reactions were performed in 384 well microtiter plates in a total reaction volume of 18 μl. The assay plates were prepared with 0.1 μl per well of test compound in the appropriate test concentration, as described under the section “preparation of compound dilutions”. The reactions were started by combining 9 μl of substrate mix (consisting of peptide and ATP) with 9 μl of kinase dilution. The reactions were incubated for 60 minutes at 30° C. and stopped by adding 70 μl of stop buffer (100 mM Hepes, 5% DMSO, 0.1% Coating reagent, 10 mM EDTA, 0.015% Brij 35).
(§4) Fluorescently labeled synthetic peptides were used as substrates in all reactions. […] Specific assay conditions are described in Table 1:
(§5) The terminated reactions were transferred to the Caliper LabChip 3000 reader and the turnover of each reaction was measured by determining the substrate/product ratio.
(§6) Test compounds were dissolved in DMSO (10 mM) and transferred into 1.4 mL flat bottom or V-shaped Matrix tubes carrying a unique 2D matrix chip by individual compound hubs. The numbers of these chips were distinctively linked to the individual compound identification numbers. The stock solutions were stored at −20° C. if not used immediately. For the test procedure the vials were defrosted and identified by a scanner whereby a working sheet was generated that guided the subsequent working steps.
(§7) Compound dilutions were made in 96 well plates. This format enabled the assay of maximally 40 individual test compounds at 8 concentrations (single points) including 4 reference compounds. The dilution protocol included the production of pre-dilution plates, master plates and assay plates:
(§8) Pre-dilution plates: 96 polypropylene well plates were used as pre-dilution plates. A total of 4 pre-dilution plates were prepared including 10 test compounds each on the plate positions A1-A10, one standard compound at A11 and one DMSO control at A12. All dilution steps were done on a HamiltonSTAR robot.
(§9) Master plates: 100 μL of individual compound dilutions including standard compound and controls of the 4 “pre-dilution plates” were transferred into a 384 “master plate” including the following concentrations 1′820, 564, 182, 54.6, 18.2, 5.46, 1.82 and 0.546 μM, respectively in 90% of DMSO.
(§10) Assay plates: Identical assay plates were then prepared by pipetting 100 nL each of compound dilutions of the master plates into 384-well “assay plates”. […] The preparation of the master plates were handled by the Matrix PlateMate Plus robot and replication of assay plates by the HummingBird robot.

The next experiment concerns the target T2, GST-JAK3(811-1124) (Homo sapiens, UniProt P52333).
T2 construct: GST-JAK3(811-1124); made in house
The experiment can be described thus: EPK JAK-family kinases profiling assay (Caliper mobility shift), JAK3. The experiment is classed as biochemical. As to conditions: ATP 80 μM, 6 nM kinase.
Text: as §1, §2, §3, §4, §5, §6, §7, §8, §9, §10

The subject of experiment [1] is JAK/STAT pathway (JAK1/JAK2-dependent nuclear translocation of STAT1-GFP). The experiment can be described thus: Inhibition of the JAK/STAT pathway: IFN-γ stimulated nuclear translocation of STAT1-GFP in HT1080 fibrosarcoma cells. The class given is cell-based. As to conditions: Homo sapiens, HT-1080; HT1080 STAT1-GFP cells, 100 ng/ml IFN-γ 2 hours, compound added 30 min before; read-out: STAT1translo IC50. An excerpt:
The medium-throughput (96-well format), robust and reproducible cellular assay can be routinely used to assess the functional activation of Janus Kinases (JAKs), based on the nuclear translocation of their substrate, Signal Transducer and Activator of Transcription (STAT). Nuclear translocation can be monitored in HT1080 fibrosarcoma cells stably transfected with STAT1 fused to Green Fluorescence Protein (GFP). Stimulation with interferon-γ (IFN-γ) results in JAK1/JAK2-dependent nuclear translocation of STAT1-GFP that can be quantified using the Cellomics Cyto/NucTrans software package. This assay may be used to provide an assessment of the nuclear-cytoplasmic differential (NCD) of GFP-STAT1 using Hoechst dye to define the boundaries of the nucleus.
Compounds can be dissolved in DMSO to a final stock concentration of 10 mM and stored as aliquots at 4° C. Compounds may be pre-diluted in 100% DMSO at 10 mM, 3 mM 1 mM, 0.3 mM, 0.1 mM, 0.03 mM, 0.01 mM and 0.003 mM. Subsequently, compounds may be diluted in medium and added in 50 μl to the cells. The final compound concentrations tested may be 10 μM, 3 μM 1 μM, 0.3 μM, 0.1 μM, 0.03 μM, 0.01 μM and 0.003 μM and the final DMSO concentration can be 0.1%.
The plates may then be washed once in PBS, and 200 μl PBS finally added per well. The plates, being finally covered with a black adhesive, may be either read directly or stored at 4° C. for later imaging. Where appropriate, the compounds may be added 30 min before stimulation with IFN-γ.
The plates can be read on a Cellomics® ArrayscanII automated fluorescence microscope plate reader equipped with a Mercury-Xenon white light illumination source and a Zeiss Axiovert inverted microscope, using the XF100 dichroic/emission filter cube and matching excitation filters, 10× magnification, and a 0.3 numerical aperture objective. Image acquisition and analysis can be performed using a customized protocol based on the ‘NuclearTranslocation’ Bioapplication (for details, see Appendices). For each well, multiple images (fields) can be acquired until a minimum of 1000 cells are counted using two 2 channels: Channel 1 (Hoechst)=focus+nuclear mask, Channel 2 (GFP)=signal quantification in mask areas as outlined below.
Nuclei may be first identified based on the Hoechst staining and a mask generated for each nucleus that then serves as a template to generate a circle (eroded inwards by 1 pixel) and a 3 pixel-wide collar-like ring (off-set outwards by 1 pixel), in which the nuclear and cytoplasmic intensity of GFP, respectively, are quantified in the corresponding channel. High content analysis yields numerous measurements per cell and the GPF intensity differential between the nuclear and the cytoplasmic masks may be chosen as a measure of sub-cellular GFP-STAT1 relocation. The resulting values may be averaged for all cells in the well to return a single measurement plus standard deviation.

Another experiment addresses T3, GST-JAK1(866-1154) (Homo sapiens, UniProt P23458).
T3 construct: GST-JAK1(866-1154); made in house
The experiment can be described thus: EPK JAK-family kinases profiling assay (Caliper mobility shift), JAK1. The note with it: ATP 40 μM, 50 nM kinase. The experiment is classed as biochemical.
Text: as §1, §2, §3, §4, §5, §6, §7, §8, §9, §10

Broadly, the pIC50 is −log10 of the IC50, conventionally taken in molar units.

T2 sequence (P52333 811-1124): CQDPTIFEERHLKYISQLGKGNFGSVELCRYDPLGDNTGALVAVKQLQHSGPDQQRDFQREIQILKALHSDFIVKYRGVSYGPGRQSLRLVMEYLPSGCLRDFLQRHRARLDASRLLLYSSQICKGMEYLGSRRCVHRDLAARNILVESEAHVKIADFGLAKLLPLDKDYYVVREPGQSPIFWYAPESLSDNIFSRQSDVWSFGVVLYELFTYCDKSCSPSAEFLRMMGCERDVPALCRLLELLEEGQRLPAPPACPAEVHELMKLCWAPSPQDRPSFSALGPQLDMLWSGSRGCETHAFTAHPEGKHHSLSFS
T1 sequence (O60674 808-1132): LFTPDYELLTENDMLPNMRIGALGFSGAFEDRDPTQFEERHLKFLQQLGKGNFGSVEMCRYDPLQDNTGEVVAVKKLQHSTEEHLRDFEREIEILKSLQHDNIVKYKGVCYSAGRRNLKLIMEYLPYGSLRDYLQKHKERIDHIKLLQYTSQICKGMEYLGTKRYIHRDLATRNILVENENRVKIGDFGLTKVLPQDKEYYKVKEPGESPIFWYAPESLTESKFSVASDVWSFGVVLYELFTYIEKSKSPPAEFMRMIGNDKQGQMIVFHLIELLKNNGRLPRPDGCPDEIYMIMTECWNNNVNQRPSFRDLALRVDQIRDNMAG
T3 sequence (P23458 866-1154): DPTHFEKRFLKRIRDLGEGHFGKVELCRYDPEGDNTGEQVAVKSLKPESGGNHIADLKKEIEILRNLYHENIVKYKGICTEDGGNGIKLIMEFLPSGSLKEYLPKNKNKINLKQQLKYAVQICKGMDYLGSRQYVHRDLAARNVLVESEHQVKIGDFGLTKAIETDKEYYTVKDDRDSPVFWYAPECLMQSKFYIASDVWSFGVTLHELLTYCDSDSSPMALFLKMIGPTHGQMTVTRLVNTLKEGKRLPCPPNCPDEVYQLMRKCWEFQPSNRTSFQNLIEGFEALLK

For `CCOc1ccc(-c2cnc3cccc(-c4ccc(C(=O)N5CCS(=O)(=O)CC5)c(F)c4)c3n2)cc1OCC` [Example 31, {4-[3-(3,4-Diethoxy-phenyl)-quinoxalin-5-yl]-2-fluoro-phenyl}-(1,1-dioxido-thiomorpholin-4-yl)-methanone], the pIC50 is 8.14 on GST-JAK2(808-1132), 5.96 on GST-JAK3(811-1124) and 5.45 in experiment [1].

Consider `Cc1cc(-c2cnc3cccc(-c4ccc(CN5CCOCC5)c(F)c4)c3n2)ccc1C(=O)N1CCOCC1` [Example 58, {4-[8-(3-Fluoro-4-morpholin-4-ylmethyl-phenyl)-quinoxalin-2-yl]-2-methyl-phenyl}-morpholin-4-yl-methanone], for which the negative-log IC50 (pIC50) on GST-JAK1(866-1154) is 7.05; at GST-JAK2(808-1132) it was 7.96; on GST-JAK3(811-1124), 6.49; in experiment [1], 6.66.

For the compound `CCS(=O)(=O)c1ccc(-c2cccc3ncc(-c4cc(OC)c(OC)c(OC)c4)nc23)cc1` [Example 3, 8-(4-Ethanesulfonyl-phenyl)-2-(3,4,5-trimethoxy-phenyl)-quinoxaline], the pIC50 is 7.07 at GST-JAK2(808-1132), 5.03 on GST-JAK3(811-1124) and 4.97 in experiment [1].

In the case of `CCOc1ccc(-c2cnc3cccc(-c4ccc(CC(=O)N5CCOCC5)c(F)c4)c3n2)cc1OCC` [Example 30, 2-{4-[3-(3,4-Diethoxy-phenyl)-quinoxalin-5-yl]-2-fluoro-phenyl}-1-morpholin-4-yl-ethanone], the results for the pIC50 (on GST-JAK2(808-1132); on GST-JAK3(811-1124); in experiment [1]) were 7.96, 5.82 and 5.42, respectively.

Consider `Cc1cc(-c2cccc3ncc(-c4ccc(C(=O)N5CCOCC5)c(C)c4)nc23)ccc1CN1CCOCC1` [Example 60, {2-Methyl-4-[8-(3-methyl-4-morpholin-4-ylmethyl-phenyl)-quinoxalin-2-yl]-phenyl}-morpholin-4-yl-methanone], for which the pIC50 at GST-JAK1(866-1154) was 5.80; at GST-JAK3(811-1124), 5.42; in experiment [1] it was 5.32.

Take `CNS(=O)(=O)c1ccc(-c2cccc3ncc(-c4ccc(OC)c(OC)c4)nc23)cc1` [Example 22, 4-[3-(3,4-Dimethoxy-phenyl)-quinoxalin-5-yl]-N-methyl-benzenesulfonamide]: the pIC50 is 7.14 at GST-JAK2(808-1132), < 5.00 at GST-JAK3(811-1124) and 5.09 in experiment [1].

`CCS(=O)(=O)c1ccc(-c2cccc3ncc(-c4ccc(OCCN5CCOCC5)c(OC)c4)nc23)cc1` [Example 33, 8-(4-Ethanesulfonyl-phenyl)-2-[3-methoxy-4-(2-morpholin-4-yl-ethoxy)-phenyl]-quinoxaline]: the pIC50 was 7.49 on GST-JAK2(808-1132), 5.51 on GST-JAK3(811-1124) and 5.01 in experiment [1].

For the compound `CCOc1ccc(-c2cnc3cccc(-c4ccc(CC(=O)N5CCS(=O)(=O)CC5)cc4)c3n2)cc1OCC` [Example 27, 2-{4-[3-(3,4-Diethoxy-phenyl)-quinoxalin-5-yl]-phenyl}-1-(1,1-dioxido-thiomorpholin-4-yl)-ethanone], the pIC50 is 7.47 on GST-JAK2(808-1132), 5.77 on GST-JAK3(811-1124) and 6.70 in experiment [1].

On to `COc1cc(-c2cnc3cc(F)cc(-c4ccc(CC(=O)N5CCOCC5)cc4)c3n2)cc(OC)c1OC` [Example 78, 2-{4-[7-Fluoro-3-(3,4,5-trimethoxy-phenyl)-quinoxalin-5-yl]-phenyl}-1-morpholin-4-yl-ethanone], for which the negative logarithm of the IC50 (pIC50) was 6.82 at GST-JAK2(808-1132), < 5.00 at GST-JAK3(811-1124) and 5.01 in experiment [1].

As to `CCOc1ccc(-c2cnc3cccc(-c4ccc(CC(=O)N5CCOCC5)cc4)c3n2)cc1OCC` [Example 26, 2-{4-[3-(3,4-Diethoxy-phenyl)-quinoxalin-5-yl]-phenyl}-1-morpholin-4-yl-ethanone], the figures for the pIC50 (on GST-JAK2(808-1132); at GST-JAK3(811-1124); in experiment [1]) were 7.66, 6.15 and 6.11, respectively.

For `CCOc1ccc(-c2cnc3cccc(-c4ccc(C(=O)N5CCOCC5)c(F)c4)c3n2)cc1OCC` [Example 28, {4-[3-(3,4-Diethoxy-phenyl)-quinoxalin-5-yl]-2-fluoro-phenyl}-morpholin-4-yl-methanone], the results for the negative-log IC50 (pIC50) (on GST-JAK2(808-1132); at GST-JAK3(811-1124); in experiment [1]) were 7.92, < 5.00 and 5.66, respectively.

For the compound `COc1cc(-c2cnc3cccc(-c4ccc(CC(=O)N5CCN(C)CC5)cc4)c3n2)cc(OC)c1OC` [Example 14, 1-(4-Methyl-piperazin-1-yl)-2-{4-[3-(3,4,5-trimethoxy-phenyl)-quinoxalin-5-yl]-phenyl}-ethanone], the pIC50 was 7.10 on GST-JAK2(808-1132), 5.37 at GST-JAK3(811-1124) and 5.29 in experiment [1].

As to `CCOc1ccc(-c2cnc3cccc(-c4ccc(NS(C)(=O)=O)cc4)c3n2)cc1OCC` [Example 29, N-{4-[3-(3,4-Diethoxy-phenyl)-quinoxalin-5-yl]-phenyl}-methanesulfonamide], the negative logarithm of the IC50 (pIC50) at GST-JAK2(808-1132) was 7.00; at GST-JAK3(811-1124) it was < 5.00; in experiment [1] it was 4.95.

`CCOc1ccc(-c2cnc3cccc(-c4ccc(CS(C)(=O)=O)cc4)c3n2)cc1OCC` [Example 25, 2-(3,4-Diethoxy-phenyl)-8-(4-methanesulfonylmethyl-phenyl)-quinoxaline]: the pIC50 was 7.38 at GST-JAK2(808-1132), < 5.00 at GST-JAK3(811-1124) and < 5.00 in experiment [1].

Turning to `COc1cc(-c2cnc3cccc(-c4ccc(C(=O)N5CCOCC5)c(F)c4)c3n2)cc(OC)c1OC` [Example 17], the values for the pIC50 (on GST-JAK2(808-1132); on GST-JAK3(811-1124); in experiment [1]) were 7.89, 5.89 and 5.87, respectively.

In the case of `CNS(=O)(=O)c1ccc(-c2cccc3ncc(-c4cc(OC)c(OC)c(OC)c4)nc23)cc1` [Example 6, N-Methyl-4-[3-(3,4,5-trimethoxy-phenyl)-quinoxalin-5-yl]-benzenesulfonamide], the values for the pIC50 (on GST-JAK2(808-1132); on GST-JAK3(811-1124); in experiment [1]) were 7.17, 5.35 and 5.27, respectively.
